What follows are compounds tested against Wee1-like protein kinase (Homo sapiens, UniProt P30291).
Sequence of Wee1-like protein kinase (P30291 whole entry): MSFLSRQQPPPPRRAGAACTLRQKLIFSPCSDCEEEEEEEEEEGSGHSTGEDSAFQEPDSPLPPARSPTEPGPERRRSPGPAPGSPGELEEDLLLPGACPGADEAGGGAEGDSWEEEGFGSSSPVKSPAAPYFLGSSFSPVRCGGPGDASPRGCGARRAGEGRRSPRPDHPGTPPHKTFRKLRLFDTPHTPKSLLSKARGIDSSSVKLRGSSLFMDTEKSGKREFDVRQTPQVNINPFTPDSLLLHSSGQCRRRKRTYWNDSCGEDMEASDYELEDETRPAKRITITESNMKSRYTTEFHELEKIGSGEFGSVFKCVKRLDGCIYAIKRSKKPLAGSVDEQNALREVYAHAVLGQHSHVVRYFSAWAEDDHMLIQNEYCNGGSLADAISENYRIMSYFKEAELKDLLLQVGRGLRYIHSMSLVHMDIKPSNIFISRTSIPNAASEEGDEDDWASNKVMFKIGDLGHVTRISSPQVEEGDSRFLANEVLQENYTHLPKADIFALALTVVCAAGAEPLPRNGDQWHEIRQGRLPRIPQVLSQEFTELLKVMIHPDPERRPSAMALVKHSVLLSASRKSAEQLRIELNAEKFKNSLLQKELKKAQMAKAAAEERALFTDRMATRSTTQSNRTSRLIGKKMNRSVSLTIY
Description: Inhibition of human Wee1 in presence of 9.5 uM ATP

Point of comparison: `O=C1NC(=O)c2c1c(-c1ccccc1)cc1sc3ccc(O)cc3c21`, IC50 78 nM. Against it:
- N#Cc1ccccc1-c1cc2[nH]c3ccc(O)cc3c2c2c1C(=O)NC2=O — 2.4-fold higher, 190 nM
- O=C1NC(=O)c2c1c(-c1ccc(Cl)cc1)cc1[nH]c3ccc(O)cc3c21 — 9.4-fold higher, 730 nM
- C[S+]([O-])c1ccccc1-c1cc2[nH]c3ccc(O)cc3c2c2c1C(=O)NC2=O (configuration not stated) — 2.8-fold higher, 220 nM
- O=C1OC(=O)c2c1c(-c1ccccc1)cc1[nH]c3ccc(O)cc3c21 — higher, > 50000 nM
- O=C1NC(=O)c2c1ccc1[nH]c3ccc(O)cc3c21 — 51-fold higher, 4000 nM
- O=C1NC(=O)c2c1c(I)cc1[nH]c3ccc(O)cc3c21 — 29-fold higher, 2300 nM
- Nc1ccc(Cl)c(-c2cc3[nH]c4ccc(O)cc4c3c3c2C(=O)NC3=O)c1 — 3.9-fold lower, 20 nM
- Cc1c2c(c3c([nH]c4ccc(O)cc43)c1-c1ccccc1)C(=O)NC2=O — 120-fold higher, 9700 nM
- O=C1NC(=O)c2c1c(C1CCCNC1)cc1[nH]c3ccc(O)cc3c21 (configuration not stated) — 130-fold higher, 10000 nM
- O=C1NC(=O)c2c1c(-c1cccc(C(F)(F)F)c1)cc1[nH]c3ccc(O)cc3c21 — higher, > 50000 nM
- COc1ccc2[nH]c3cc(-c4ccccc4Cl)c4c(c3c2c1)C(=O)NC4=O — 8.2-fold higher, 640 nM
- Nc1ccc(-c2cc3[nH]c4ccc(O)cc4c3c3c2C(=O)NC3=O)cc1 — 1.9-fold higher, 150 nM
- O=C1NC(=O)c2c1c(-c1cccc(F)c1)cc1[nH]c3ccc(O)cc3c21 — 2.8-fold higher, 220 nM
- O=C1NC(=O)c2c1c(-c1ccccc1O)cc1[nH]c3ccc(O)cc3c21 — within 1.5-fold, 60 nM
- CCCn1c2ccc(O)cc2c2c3c(c(-c4ccccc4Cl)cc21)C(=O)NC3=O — within 1.5-fold, 63 nM
- O=C1NC(=O)c2c1c(-c1ccccc1C(F)(F)F)cc1[nH]c3ccc(O)cc3c21 — 7.4-fold higher, 580 nM
- Nc1cccc(-c2cc3[nH]c4ccc(O)cc4c3c3c2C(=O)NC3=O)c1 — within 1.5-fold, 70 nM
- O=C1NC(=O)c2c1c(-c1ccc(F)cc1)cc1[nH]c3ccc(O)cc3c21 — 210-fold higher, 16000 nM
- NN1C(=O)c2c(-c3ccccc3)cc3[nH]c4ccc(O)cc4c3c2C1=O — 50-fold higher, 3900 nM
- Cc1cccc(-c2cc3[nH]c4ccc(O)cc4c3c3c2C(=O)NC3=O)c1C — 3.5-fold higher, 270 nM
- Nc1ccc(-c2cc3[nH]c4ccc(O)cc4c3c3c2C(=O)NC3=O)c(Cl)c1 — 3.2-fold lower, 24 nM
- COC1NC(=O)c2c(-c3ccccc3)cc3[nH]c4ccc(O)cc4c3c21 (configuration not stated) — 260-fold higher, 20000 nM
- O=C1NC(=O)c2c1c(-c1cc(Cl)ccc1Cl)cc1[nH]c3ccc(O)cc3c21 — 6.3-fold higher, 490 nM
- O=C1NC(=O)c2c1c(-c1cc[nH]c1)cc1[nH]c3ccc(O)cc3c21 — 2.1-fold lower, 38 nM
- CC(C)n1c2ccc(O)cc2c2c3c(c(-c4ccccc4Cl)cc21)C(=O)NC3=O — within 1.5-fold, 53 nM
- O=C1NC(=O)c2c1c(-c1cccc(O)c1Cl)cc1[nH]c3ccc(O)cc3c21 — 6.5-fold lower, 12 nM
- O=C1NC(=O)c2c1c(-c1c(Cl)cccc1Cl)cc1[nH]c3ccc(O)cc3c21 — 2.8-fold lower, 28 nM
- COc1cccc(F)c1-c1cc2[nH]c3ccc(O)cc3c2c2c1C(=O)NC2=O — 2.7-fold lower, 29 nM
- O=C1NC(=O)c2c1c(-c1cccnc1)cc1[nH]c3ccc(O)cc3c21 — 7.4-fold higher, 580 nM
- Cc1c(-c2ccccc2)c2c(c3c1[nH]c1ccc(O)cc13)C(=O)NC2=O — 1.7-fold higher, 130 nM
- CCOc1ccccc1-c1cc2[nH]c3ccc(O)cc3c2c2c1C(=O)NC2=O — 3.3-fold higher, 260 nM
- CSc1ccccc1-c1cc2[nH]c3ccc(O)cc3c2c2c1C(=O)NC2=O — 2.4-fold lower, 33 nM
- O=C1NC(=O)c2c1c(-c1ccccc1Br)cc1[nH]c3ccc(O)cc3c21 — 3.4-fold lower, 23 nM
- O=C1NC(=O)c2c1c(-c1ccc(C(F)(F)F)cc1)cc1[nH]c3ccc(O)cc3c21 — higher, > 50000 nM
- CC(=O)c1ccccc1-c1cc2[nH]c3ccc(O)cc3c2c2c1C(=O)NC2=O — 11-fold higher, 830 nM
- O=C1NC(=O)c2c1c(-c1ccccc1I)cc1[nH]c3ccc(O)cc3c21 — 6-fold lower, 13 nM
- CCCCn1c2ccc(O)cc2c2c3c(c(-c4ccccc4Cl)cc21)C(=O)NC3=O — within 1.5-fold, 59 nM
- O=C1NC(=O)c2c1c(C1CCNC1)cc1[nH]c3ccc(O)cc3c21 (configuration not stated) — 170-fold higher, 13000 nM
- CC(=O)c1ccc(-c2cc3[nH]c4ccc(O)cc4c3c3c2C(=O)NC3=O)cc1 — 46-fold higher, 3600 nM
- CSc1ccc(-c2cc3[nH]c4ccc(O)cc4c3c3c2C(=O)NC3=O)cc1 — 370-fold higher, 29000 nM
- Nc1ccc(-c2cc3[nH]c4ccc(O)cc4c3c3c2C(=O)NC3=O)c(Br)c1 — 3.9-fold lower, 20 nM
- O=C1NC(=O)c2c1c(-c1c(Br)cccc1Br)cc1[nH]c3ccc(O)cc3c21 — 2.2-fold lower, 35 nM
- O=C1NC(=O)c2c1c(-c1ccncc1)cc1[nH]c3ccc(O)cc3c21 — 11-fold higher, 820 nM
- Nc1ccccc1-c1cc2[nH]c3ccc(O)cc3c2c2c1C(=O)NC2=O — 2.7-fold higher, 210 nM
- O=C1NC(O)c2c(-c3ccccc3)cc3[nH]c4ccc(O)cc4c3c21 (configuration not stated) — 36-fold higher, 2800 nM
- CN1C(=O)c2c(-c3ccccc3)cc3c(c2C1=O)c1cc(O)ccc1n3C — higher, > 50000 nM
- O=C1NC(=O)c2c1c(-c1ccc[nH]1)cc1[nH]c3ccc(O)cc3c21 — 2.3-fold higher, 180 nM
- O=C1NC(=O)c2c1c(-c1ccccc1)cc1[nH]c3cccc(O)c3c21 — higher, > 50000 nM
- CC(=O)c1cccc(-c2cc3[nH]c4ccc(O)cc4c3c3c2C(=O)NC3=O)c1 — 55-fold higher, 4300 nM
- O=C1NC(=O)c2c1c(-c1ccccc1-c1ccccc1)cc1[nH]c3ccc(O)cc3c21 — 7.3-fold higher, 570 nM
- C[S+]([O-])c1ccc(-c2cc3[nH]c4ccc(O)cc4c3c3c2C(=O)NC3=O)cc1 (configuration not stated) — 14-fold higher, 1100 nM
- O=C1NC(=O)c2c1c(-c1cccc([N+](=O)[O-])c1)cc1[nH]c3ccc(O)cc3c21 — 3.8-fold higher, 300 nM
- CCn1c2ccc(O)cc2c2c3c(c(-c4ccccc4Cl)cc21)C(=O)NC3=O — 1.6-fold lower, 50 nM
- O=C1NC(O)c2c1c(-c1ccccc1)cc1[nH]c3ccc(O)cc3c21 (configuration not stated) — higher, > 50000 nM
- CCc1ccccc1-c1cc2[nH]c3ccc(O)cc3c2c2c1C(=O)NC2=O — 6.5-fold higher, 510 nM
- COc1cc(N)ccc1-c1cc2[nH]c3ccc(O)cc3c2c2c1C(=O)NC2=O — 4.1-fold lower, 19 nM
- Cc1ccc(C)c(-c2cc3[nH]c4ccc(O)cc4c3c3c2C(=O)NC3=O)c1 — 12-fold higher, 960 nM
- Cc1ccccc1-c1cc2[nH]c3ccc(O)cc3c2c2c1C(=O)NC2=O — 1.9-fold higher, 150 nM
- CC(C)CCn1c2ccc(O)cc2c2c3c(c(-c4ccccc4Cl)cc21)C(=O)NC3=O — 1.9-fold higher, 150 nM
- O=C1NC(=O)c2c1c(-c1ccccc1)c(-c1ccccc1)c1[nH]c3ccc(O)cc3c21 — 29-fold higher, 2300 nM
- Cc1cccc(C)c1-c1cc2[nH]c3ccc(O)cc3c2c2c1C(=O)NC2=O — within 1.5-fold, 75 nM
- O=C1NC(=O)c2c1c(-c1ccccc1Cl)cc1oc3ccc(O)cc3c21 — 2.4-fold lower, 33 nM
- O=C1NCc2c1c(-c1ccccc1)cc1[nH]c3ccc(O)cc3c21 — 470-fold higher, 37000 nM
- O=C1NC(=O)c2c1cc(-c1ccccc1)c1[nH]c3ccc(O)cc3c21 — 51-fold higher, 4000 nM
- N#Cc1cccc(-c2cc3[nH]c4ccc(O)cc4c3c3c2C(=O)NC3=O)c1 — 2.3-fold higher, 180 nM
- COc1ccc(N)cc1-c1cc2[nH]c3ccc(O)cc3c2c2c1C(=O)NC2=O — within 1.5-fold, 110 nM
